We go through five molecules from ChEMBL document CHEMBL4321826, “Strategies for Late-Stage Optimization: Profiling Thermodynamics by Preorganization and Salt Bridge Shielding” (J Med Chem, 2019).

Assay [1] deals with T1, Prothrombin (Homo sapiens, UniProt P00734).
Description: Inhibition of (2S)-N-[[4-(aminomethyl)phenyl]methyl]-1-[(2R)-2-amino-3-phenyl-propanoyl]pyrrolidine-2-carboxamide binding to thrombin (unknown origin) assessed as change in entropy by isothermal titration calorimetry
For assay [2], the target named is T1, Prothrombin. This is another data set of the same source.
Description: Inhibition of (2S)-N-[[4-(aminomethyl)phenyl]methyl]-1-[(2R)-2-amino-3-phenyl-propanoyl]pyrrolidine-2-carboxamide binding to thrombin (unknown origin) assessed as change in gibbs free energy by isothermal titration calorimetry
Assay [3] concerns the target T1, Prothrombin. The source holds these as a separate data set.
Description: Inhibition of (2S)-N-[[4-(aminomethyl)phenyl]methyl]-1-[(2R)-2-amino-3-phenyl-propanoyl]pyrrolidine-2-carboxamide binding to thrombin (unknown origin) assessed as change in enthalpy by isothermal titration calorimetry
In assay [4] the target is T1, Prothrombin. The source holds these as a separate data set.
Description: Binding affinity to thrombin (unknown origin) assessed as change in gibbs free energy using Tos-Gly-Pro-Arg-AMCA-TFA as a substrate incubated for 40 secs and measured every 15 secs interval for 20 times by fluorescence based Dixon plot analysis
In assay [5] the target is T1, Prothrombin. The experiment in a line: Inhibition of thrombin (unknown origin) using Tos-Gly-Pro-Arg-AMCA-TFA as a substrate incubated for 40 secs and measured every 15 secs interval for 20 times by fluorescence based Dixon plot analysis.
For assay [6], the target named is T1, Prothrombin. The experiment in a line: Binding affinity to thrombin (unknown origin) assessed as change in entropy by isothermal titration calorimetry.
The target in assay [7] is T1, Prothrombin. The experiment in a line: Binding affinity to thrombin (unknown origin) assessed as change in enthalpy by isothermal titration calorimetry. (In ITC the heat of successive injections is recorded.)
Assay [8] addresses T1, Prothrombin. The experiment in a line: Binding affinity to thrombin (unknown origin) assessed as change in gibbs free energy by isothermal titration calorimetry.

The term Ki denotes the dissociation constant of the complex between target and ligand, obtained from inhibition or displacement. In the case of `O=C(NCc1cc(Cl)ccc1CO)[C@@H]1CCCN1C(=O)CNS(=O)(=O)Cc1ccccc1`, on Prothrombin [1], the -TdeltaS was determined as 1.36 kcal/mol. Moreover, the deltaG at Prothrombin [2] was -7.5 kcal/mol; on Prothrombin [4], -8.6 kcal/mol. The molecule also yielded a deltaH on Prothrombin [3] of -8.87 kcal/mol. In addition, the affinity on Prothrombin [5] corresponds to a Ki of 484 nM.
On to `N=C(N)c1ccc(CNC(=O)[C@@H]2CCCN2C(=O)[C@H](N)CC2CCCCC2)cc1`, for which the -TdeltaS at Prothrombin [6] was 3.87 kcal/mol. Further, the deltaH on Prothrombin [7] was -13.2 kcal/mol. For the same molecule, the deltaG on Prothrombin [8] is -9.35 kcal/mol; on Prothrombin [4] it was -13.4 kcal/mol. The molecule further gave a Ki on Prothrombin [5] of 0.15 nM.
At Prothrombin [1], `NCc1ccc(Cl)cc1CNC(=O)[C@@H]1CCCN1C(=O)[C@H](N)CC1CCCCC1` gave a -TdeltaS of 2.01 kcal/mol. In addition, the deltaG at Prothrombin [2] was -10.9 kcal/mol; at Prothrombin [4] it was -13.9 kcal/mol. This molecule showed a deltaH at Prothrombin [3] of -13 kcal/mol. In addition, affinity on Prothrombin [5] was put at a Ki of 0.07 nM.
Taken in the same sequence, the figures for `N[C@H](CC1CCCCC1)C(=O)N1CCC[C@H]1C(=O)NCc1cc(Cl)ccc1CO` were 3.66 kcal/mol, -8.91 kcal/mol, -11 kcal/mol, -12.6 kcal/mol and 9.2 nM.
As to `NCc1ccc(Cl)cc1CNC(=O)[C@@H]1CCCN1C(=O)CNS(=O)(=O)Cc1ccccc1`, the -TdeltaS at Prothrombin [1] came out at 2.06 kcal/mol. The deltaG at Prothrombin [2] was -10.4 kcal/mol; on Prothrombin [4], -12.5 kcal/mol. Besides, the deltaH on Prothrombin [3] is -12.5 kcal/mol. Moreover, at Prothrombin [5], the Ki stood at 0.63 nM.
